Data from patent US20240366612A1, “COMPOUNDS AND METHODS FOR MODULATING NUCLEIC ACID SPLICING” (REMIX THERAPEUTICS INC., priority 2021, published 2024).
Structures can show the parent of a compound that is named as a salt.

Key:
Target C CJ mRNA = test: Gene panel canonical junction qPCR assay, Target C; assay type: cell-based; conditions: Homo sapiens, larger gene panel, read-out: Target C IC50 (decrease in CJ mRNA levels)
In short: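 A673 or K562 cells treated 24 h with 11-point 3-fold dilutions (top 10 µM, ≤0.25% DMSO) at 37 °C. Canonical exon-junction mRNA measured by probe-based RT-qPCR, normalized to GAPDH, GUSB or PPIA and DMSO (2^−ΔΔCt), converted to percent response over a fixed ΔCt window; IC50 from 4-parameter fit.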

[1] = system: HiBiT-tagged MYB protein in K562 cells; test: HiBiT protein abundance assay, MYB; assay type: cell-based, human; conditions: HiBiT-modified K562 cells, 24 hours, luminescence
In short: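 K562 lines with the endogenous target HiBiT-tagged, seeded in IMDM+1% FBS, got a 10-point 3-fold dilution series (top final 10 μM, DMSO ≤0.25%) for 24 hours at 37° C. Lytic LgBiT luminescence was normalized against unmodified-K562 and DMSO-only controls, and IC50 was interpolated at 50% from a four-parameter logistic fit.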

SMILES	IC50 (Target C CJ mRNA)	IC50 [1]
Cc1cn2nc(-c3cc4ncn(C5CCN(C)CC5)c(=O)c4s3)cc(C)c2n1 [Compound 239, 6-(2,8-dimethylimidazo[1,2-b]pyridazin-6-yl)-3-(1-methylpiperidin-4-yl)thieno[3,2-d]pyrimidin-4(3H)-one]	> 10000 nM	1000 to 10000 nM
Cc1nc(-c2nc3ncn(C4CCNCC4)c(=O)c3s2)cc2cn(C)nc12 [Compound 251, 2-(2,7-dimethyl-2H-pyrazolo[3,4-c]pyridin-5-yl)-6-(piperidin-4-yl)thiazolo[4,5-d]pyrimidin-7(6H)-one]	> 10000 nM	1000 to 10000 nM
Cc1cn2cc(-c3nc4sc(C5CCN(C)CC5)cc4c(=O)[nH]3)cc(F)c2n1 [Compound 256, 2-(8-fluoro-2-methylimidazo[1,2-a]pyridin-6-yl)-6-(1-methylpiperidin-4-yl)thieno[2,3-d]pyrimidin-4(3H)-one]	> 10000 nM	> 10000 nM
Cc1cn2cc(-c3cc4ncn(C5CCNCC5)c(=O)c4s3)ncc2n1 [Compound 264]	1000 to 10000 nM	1000 to 10000 nM
Cc1cn2nc(-c3nc4sc(N5CCN(C)CC5)nc4c(=O)[nH]3)cc2c(C)n1 [Compound 268]	> 10000 nM	> 10000 nM
Cc1cn2cc(-c3cc4ncn(N5CCNCC5)c(=O)c4s3)cc(F)c2n1 [Compound 269, 6-{8-fluoro-2-methylimidazo[1,2-a]pyridin-6-yl}-3-(piperazin-1-yl)thieno[3,2-d]pyrimidin-4-one]	1000 to 10000 nM	100 to 1000 nM
Cc1nc(-c2cc3ncn(C4CCNCC4)c(=O)c3s2)cc2cn(C)nc12 [Compound 271]	1000 to 10000 nM	1000 to 10000 nM
Cc1cn2cc(-c3cc4ncn(C5CCNCC5(F)F)c(=O)c4s3)cc(F)c2n1 (centres unmarked) [Compound 274, 3-(3,3-difluoropiperidin-4-yl)-6-{8-fluoro-2-methylimidazo[1,2-a]pyridin-6-yl}thieno[3,2-d]pyrimidin-4-one]	> 10000 nM	> 10000 nM
Cc1cn2cc(-c3cc4ncn(C5CNCCC5=O)c(=O)c4s3)cc(F)c2n1 (centres unmarked) [Compound 279, 3-(6-{8-fluoro-2-methylimidazo[1,2-a]pyridin-6-yl}-4-oxothieno [3,2-d]pyrimidin-3-yl)piperidin-4-one]	> 10000 nM	> 10000 nM
Cc1cn2cc(N3CCc4cc(C5CCNCC5)sc4C3=O)cc(F)c2n1 [Compound 800, 6-[8-fluoro-2-methylimidazo[1,2-a]pyridin-6-yl]-2-(piperidin-4-yl)-4H,5H-thieno[2,3-c]pyridin-7-one]	> 10000 nM	> 10000 nM
Cc1cn2cc(-n3ccc4cc(C5CCNCC5)sc4c3=O)cc(F)c2n1 [Compound 801, 6-[8-fluoro-2-methylimidazo[1,2-a]pyridin-6-yl]-2-(piperidin-4-yl)thieno[2,3-c]pyridin-7-one]	> 10000 nM	> 10000 nM
Cc1cc(-c2cc3ccn(C4CCNCC4)c(=O)c3s2)cc2cn(C)nc12 [Compound 805, 2-(2,7-dimethyl-2H-indazol-5-yl)-6-(piperidin-4-yl)thieno[2,3-c]pyridin-7(6H)-one]	1000 to 10000 nM	100 to 1000 nM
Cc1cn2cc(-c3cc4ccn(C5CCN(C)CC5)c(=O)c4s3)cc(F)c2n1 [Compound 808, 2-(8-fluoro-2-methylimidazo[1,2-a]pyridin-6-yl)-6-(1-methylpiperidin-4-yl)thieno[2,3-c]pyridin-7(6H)-one]	1000 to 10000 nM	100 to 1000 nM
Cc1cn2nc(-c3cc4ccn(C5CCN(C)CC5)c(=O)c4s3)cc(C)c2n1 [Compound 809]	1000 to 10000 nM	1000 to 10000 nM
Cc1nc(-c2nc3cnn(C4CCNCC4)c(=O)c3s2)cc2cn(C)nc12 [Compound 811]	> 10000 nM	1000 to 10000 nM
Cc1cn2cc(-c3nc4cnn(C5CCNCC5)c(=O)c4s3)nc(C)c2n1 [Compound 812, 2-(2,8-dimethylimidazo[1,2-a]pyrazin-6-yl)-6-(piperidin-4-yl)thiazolo[4,5-d]pyridazin-7(6H)-one]	> 10000 nM	100 to 1000 nM

Further lines, results first:

IC50 (Target C CJ mRNA)	IC50 [1]	SMILES
100 to 1000 nM	100 to 1000 nM	Cc1cn2cc(-c3nc4sc(C5CCNCC5)cc4c(=O)[nH]3)cc(F)c2n1 [Compound 250, 2-(8-fluoro-2-methylimidazo[1,2-a]pyridin-6-yl)-6-(piperidin-4-yl)thieno[2,3-d]pyrimidin-4(3H)-one]
1000 to 10000 nM	1000 to 10000 nM	Cn1cc2cc(-c3nc4ncn(C5CCNCC5)c(=O)c4s3)c(O)cc2n1 [Compound 253, 2-(6-hydroxy-2-methyl-2H-indazol-5-yl)-6-(piperidin-4-yl)thiazolo[4,5-d]pyrimidin-7(6H)-one, hydrochloride]
1000 to 10000 nM	1000 to 10000 nM	Cn1cc2cc(-c3cc4ncn(C5CCNCC5)c(=O)c4s3)cc(F)c2n1 [Compound 257]
1000 to 10000 nM	100 to 1000 nM	Cn1cc2cc(-c3cc4ncn(C5CCNCC5)c(=O)c4s3)c(F)cc2n1 [Compound 258]
1000 to 10000 nM	100 to 1000 nM	Cn1cc2cc(-c3cc4ncn(C5CCNCC5)c(=O)c4s3)cc(C#N)c2n1 [Compound 259]
1000 to 10000 nM	1000 to 10000 nM	COc1cc(-c2cc3ncn(C4CCNCC4)c(=O)c3s2)cnn1 [Compound 260]
1000 to 10000 nM	100 to 1000 nM	Cc1cn2cc(-c3cc4ncn(C5CCNCC5)c(=O)c4s3)cc(C)c2n1 [Compound 261]
100 to 1000 nM	100 to 1000 nM	Cc1cn2nc(-c3cc4ncn(C5CCNCC5)c(=O)c4s3)cc2c(C)n1 [Compound 262]
1000 to 10000 nM	1000 to 10000 nM	COc1cc(-c2cc3ncn(C4CCNCC4)c(=O)c3s2)ccn1 [Compound 263]
100 to 1000 nM	100 to 1000 nM	Cc1cn2cc(-c3cc4ncn(C5CCN(C)CC5)c(=O)c4s3)cc(F)c2n1 [Compound 265, 6-{8-fluoro-2-methylimidazo[1,2-a]pyridin-6-yl}-3-(1-methylpiperidin-4-yl)thieno[3,2-d]pyrimidin-4-one]
100 to 1000 nM	100 to 1000 nM	Cc1cn2nc(-c3nc4sc(N5CCNCC5)nc4c(=O)[nH]3)cc2c(C)n1 [Compound 267]
100 to 1000 nM	100 to 1000 nM	Cc1cn2cc(-c3cc4ncn(C5CCNC5)c(=O)c4s3)cc(F)c2n1 (centres unmarked) [Compound 270, 6-{8-fluoro-2-methylimidazo[1,2-a]pyridin-6-yl}-3-(pyrrolidin-3-yl)thieno[3,2-d]pyrimidin-4-one]
100 to 1000 nM	100 to 1000 nM	Cc1cn2cc(-c3cc4ncn(C5CCCNCC5)c(=O)c4s3)cc(F)c2n1 (centres unmarked) [Compound 275, 3-(azepan-4-yl)-6-{8-fluoro-2-methylimidazo[1,2-a]pyridin-6-yl}thieno[3,2-d]pyrimidin-4-one]
100 to 1000 nM	100 to 1000 nM	Cc1cn2cc(-c3cc4ncn(C5=CCNCC5)c(=O)c4s3)cc(F)c2n1 [Compound 276, 6-{8-fluoro-2-methylimidazo[1,2-a]pyridin-6-yl}-3-(1,2,3,6-tetrahydropyridin-4-yl)thieno[3,2-d]pyrimidin-4-one]
100 to 1000 nM	100 to 1000 nM	Cc1cc(-c2cc3cnn(C4CCNCC4)c(=O)c3s2)cc2cn(C)nc12 [Compound 802, 2-(2,7-dimethyl-2H-indazol-5-yl)-6-(piperidin-4-yl)thieno[2,3-d]pyridazin-7(6H)-one]
100 to 1000 nM	100 to 1000 nM	Cc1cn2cc(-c3cc4ccn(C5CCNCC5)c(=O)c4s3)cc(F)c2n1 [Compound 804, 2-(8-fluoro-2-methylimidazo[1,2-a]pyridin-6-yl)-6-(piperidin-4-yl)thieno[2,3-c]pyridin-7(6H)-one]
100 to 1000 nM	100 to 1000 nM	Cc1cn2nc(-c3cc4ccn(C5CCNCC5)c(=O)c4s3)cc(C)c2n1 [Compound 806, 2-(2,8-dimethylimidazo[1,2-b]pyridazin-6-yl)-6-(piperidin-4-yl)thieno[2,3-c]pyridin-7(6H)-one]
100 to 1000 nM	100 to 1000 nM	Cc1cn2nc(-c3nc4cnn(C5CCNCC5)c(=O)c4s3)cc(C)c2n1 [Compound 810]
